Experimental data taken from publication PMC6749073 (Frontiers in Pharmacology, 2019).

Experiments:
[1] = system: p53, Fas, and Bax expressions in A549 and H292 cells; assay: Western blot of p53, Fas and Bax; assay type: cell-based, human; details: 10 μM SP600125 pretreatment 0.5 h, 25 μM diplatin 48 h
Experimental: (§1) Cells were treated with diplatin, DDP, and CBP before being lysed. After centrifugation at 12,000 rpm for 10 min, an equal amount of protein from each group was subjected to electrophoresis on 10% SDS-PAGE gels. The proteins in the gel were then electroblotted onto polyvinylidene fluoride (PVDF) membranes (Millipore, Massachusetts, USA). After incubation in the blocking buffer (1× TBS, 0.1% Tween-20, and 5% w/v dry nonfat milk) for 1 h at room temperature, the membranes were incubated with the primary antibody at 4°C overnight. Next, membranes were rinsed with TBST, and then secondary antibodies were applied (LI-COR, USA) at room temperature for 1 h. Immunoreactive bands were visualized by a two-color infrared imaging system (Odyssey, LI-COR, USA).

H1650 = assay: MTT cell viability assay, H1650; assay type: cell-based, human; details: 48 h
Experimental: (§2) Cells were seeded at a density of 1 × 10^4 cells per well in 96-well plates. The following day, these cells were washed with PBS and exposed to different concentrations of testing compounds in culture medium for 48 h. MTT solution (10 μl at 5 mg/ml) was added to each well. After 4 h of incubation at 37°C, the medium was removed, and the insoluble precipitate was dissolved in 100 μl DMSO (Sigma, St. Louis, MO, USA). The absorbance of the dissolved solution at 490 nm was measured using a microplate reader (TECAN A-5082; Megllan, Austria). Cell viability percentages were calculated by dividing the mean optical density (OD) of compound-containing wells by that of the control wells. Each experiment was replicated three times. The IC50 of testing drugs was calculated with Statistical Product and Service Solutions software (SPSS, version 16.0).

H292 cells = assay: Cell cycle by PI flow cytometry, H292; assay type: cell-based, human; details: diplatin 50 μM, DDP 5 μM, CBP 100 μM
Experimental: (§3) Then, the cells were trypsinized, washed with PBS, and fixed in 1.5 ml 95% ethanol and left at 4°C overnight. They were then incubated with RNase and stained with propidium iodide (PI) (Multi Sciences Biotech Co., Ltd). PI absorbance was determined using a Cytomics FC500 Flow Cytometer (Beckman Coulter, USA).

LTEP-A-2 cells = assay: Cell cycle by PI flow cytometry, LTEP-A-2; assay type: cell-based, human; details: diplatin 50 µM, DDP 5 µM, CBP 100 µM
Experimental: as §3

[2] = parameters: method as in Moraleja et al., 2018; details: rats; ref Moraleja et al., 2018; cited from earlier work
HCC827 = assay: MTT cell viability assay, HCC827; assay type: cell-based, human; details: 48 h
Experimental: as §2

[3] = system: BEAS-2B normal human lung epithelial cell line; assay: MTT cell viability assay, BEAS-2B; assay type: cell-based; details: BEAS-2B normal lung epithelial cells; MTT; 48 h
Experimental: as §2

A549 cells = assay: Cell cycle by PI flow cytometry, A549; assay type: cell-based, human; details: diplatin 50 μM, DDP 5 μM, CBP 100 μM
Experimental: as §3

A549 = assay: MTT cell viability assay, A549; assay type: cell-based, human; details: 48 h
Experimental: as §2

H460 cells = assay: Cell cycle by PI flow cytometry, H460; assay type: cell-based, human; details: diplatin 50 µM, DDP 5 µM, CBP 100 µM
Experimental: as §3

A549/DDP = assay: MTT cell viability assay, A549/DDP; assay type: cell-based, human; details: A549/DDP (DDP-resistant), 48 h
Experimental: as §2

LTEP-A-2 = assay: MTT cell viability assay, LTEP-A-2; assay type: cell-based, human; details: 48 h
Experimental: as §2

Calu-3 = assay: MTT cell viability assay, Calu-3; assay type: cell-based, human; details: 48 h
Experimental: as §2

H292 = assay: MTT cell viability assay, H292; assay type: cell-based, human; details: 48 h
Experimental: as §2

[4] = system: A549, NCI-H292, NCI-H460, and LTEP-A-2 xenograft models; assay: ED50 (50% reduction of xenograft tumor volume) in nude mice; assay type: in vivo; details: dose reducing xenograft tumor volume by 50%; average over A549, NCI-H292, NCI-H460, and LTEP-A-2 xenograft models
Experimental: (§4) After injection, the animals’ condition was monitored every day for over 1 week by an observer who was blinded to the dose and drug allocation.
(§5) Estimates for ED50 and LD50 were calculated through nonlinear regression, data were fitted to a sigmoidal dose-response relationship in Prism (version 4.0a; GraphPad Software, Inc., San Diego, CA). The data were fitted to the equation:
(§6) Y=Ymin+Ymax−Ymin/1+10^(LogED50−X)∗HillSlope
(§7) where X is the logarithm of concentration, and Y is the response.

H1299 = assay: MTT cell viability assay, H1299; assay type: cell-based, human; details: 48 h
Experimental: as §2

[5] = system: JNK, Erk1/2 and p38 phosphorylation in A549 and H292 cells; assay: Western blot of MAPK phosphorylation (JNK, Erk1/2, p38); assay type: cell-based, human; details: for Erk1/2 and p38 phosphorylation: diplatin 10, 25, 50 μM, DDP 5 μM, CBP 100 μM
Experimental: as §1

[6] = system: bone marrow karyocyte count; assay: Bone marrow karyocyte count; assay type: in vivo, mice
A549 tumors = assay: TUNEL assay of A549 xenograft tumor sections; assay type: in vivo, mice; details: diplatin 120 mg/kg, DDP 6 mg/kg, CBP 60 mg/kg
Experimental: (§8) Tumor tissues were fixed in 10% formalin for 4 h and then embedded in paraffin. Five-micrometer-thick sections were sliced and stained for apoptotic cells with TUNEL assay kit in accordance with manufacturer instructions (KGI Biotechnology Company, Nanjing, China). A positive result was marked by brown staining in the cell nucleus. Cell images were acquired through a microscope (Olympus BX 51, Japan). The apoptotic index (AI) was determined as a percentage of apoptotic cells from at least 1,000 cells in each mouse.

H292 tumors = assay: TUNEL assay of H292 xenograft tumor sections; assay type: in vivo, mice; details: diplatin 120 mg/kg, DDP 6 mg/kg, CBP 60 mg/kg
Experimental: as §8

H460 = assay: MTT cell viability assay, H460; assay type: cell-based, human; details: 48 h
Experimental: as §2

lung tumor cell lines = assay: MTT cell viability assay, panel of lung tumor cell lines; assay type: cell-based, human; details: 48 h, read-out: IC50 range over the lung tumor cell lines
Experimental: as §2

[7] = Splenic index (spleen weight-to-body weight ratio); assay type: in vivo, mice; details: diplatin 30, 60, 120 mg/kg; DDP 6 mg/kg; CBP 60 mg/kg
[8] = system: peripheral blood cell count; assay: Peripheral blood cell count of treated xenograft mice; assay type: in vivo; details: diplatin 120 mg/kg; DDP 6 mg/kg; CBP 60 mg/kg
[9] = Body weight and tolerability of A549 and H292 xenograft mice; assay type: in vivo; details: diplatin 120 mg/kg; CBP 60 mg/kg; every 3 days i.v.
Experimental: Cells in logarithmic growth were washed with PBS and suspended in serum-free medium. Portions of the suspension (5 × 10^6 cells in 0.1 ml/mouse) were mixed at a 3:1 ratio with Matrigel basement membrane matrix and injected subcutaneously into the mice. Following 2 weeks of growth, tumor tissues were cut into multiple 2 × 2 × 2 mm^3 pieces and implanted using a range trocar subcutaneously (s.c. injection) into the left forepaw armpit of each mouse ([Jiang et al., 2017]). Treatment with pharmacology was started when the tumors reached an average volume of 100–200 mm^3. The mice were randomly divided into six groups (n = 14/group).
Body weight and tumor size were assessed every 3 days. Tumor size was measured using a caliper, the volumes were calculated according to the following standard formula: V = (L × W^2)/2 (V = tumor volume, L = largest diameter of tumor, W = smallest diameter of tumor). On day 25, all mice were sacrificed by cervical dislocation, and the tumors were removed and weighed.

normal ICR mice = assay: LD50 in normal ICR mice; assay type: in vivo; details: tail vein injection
Experimental: as §4, §5, §6, §7

SMILES | IC50 (H1650) [µM] | effect on cell cycle distribution (H292 cells) | effect on cell cycle distribution (LTEP-A-2 cells) | IC50 (HCC827) [µM] | IC50 [3] [µM] | effect on cell cycle distribution (A549 cells) | IC50 (A549) [µM] | effect on cell cycle distribution (H460 cells) | IC50 (A549/DDP) [µM] | IC50 (LTEP-A-2) [µM] | IC50 (Calu-3) [µM] | IC50 (H292) [µM] | Mice ED50 [4] [mg/kg] | IC50 (H1299) [µM] | Erk1/2 and p38 phosphorylation [5] | further results
Oc1c2ccccc2c2c3c(cccc13)N=N2 [SP600125] | – | – | – | – | – | – | – | – | – | – | – | – | – | – | – | effect on diplatin-induced p53, Fas, and Bax expression [1]: suppressed
N.N.[Cl][Pt][Cl] [DDP, cisplatin] | 11.6 | induced cell cycle arrest in S phase | induced cell cycle arrest in S phase | 14.7 | 19.3 | induced cell cycle arrest in S phase | 46.7 | induced cell cycle arrest in S phase | 151 | 6.2 | 33.5 | 6 | 6.0 | 18.7 | failed to induce Erk1/2 and p38 phosphorylation | Pt accumulation in the kidney compared with the CBP group [2]: approximately five-fold higher; JNK phosphorylation levels ([5]; diplatin 10–50 μM, DDP 10 μM, 0.5 h): elevated; bone marrow karyocyte count compared with the 120 mg/kg diplatin-treated group ([6]; mouse, in vivo): decreased bone marrow karyocyte count more
N.N.O=C([O-])C1(C(=O)[O-])CCC1.[Pt+2] [CBP, carboplatin] | 209 | induced cell cycle arrest in S phase | induced cell cycle arrest in S phase | 328 | 461 | induced cell cycle arrest in S phase | 221 | induced cell cycle arrest in S phase | 300 | 57 | 790 | 257 | 59.5 | 274 | failed to induce Erk1/2 and p38 phosphorylation | apoptosis (apoptotic index, TUNEL) (A549 tumors): 18.5%; apoptosis (apoptotic index, TUNEL) (H292 tumors): 24.9%; IC50 (H460): 229 µM; IC50 (lung tumor cell lines): 57 to 790 µM; splenic index relative to control [7]: no difference relative to control; decrease of peripheral blood cell count [8]: 67.9%; bone marrow karyocyte count compared with the 120 mg/kg diplatin-treated group ([6]; DDP 6 mg/kg, CBP 60 mg/kg): decreased bone marrow karyocyte count more; reduction of body weight by day 25 [9]: 18.71%; Mice LD50 (normal ICR mice): 150 mg/kg
